The values below come from article PMC6934184, “Selective DNA-PKcs inhibition extends the therapeutic index of localized radiotherapy and chemotherapy” (The Journal of Clinical Investigation, 2019).

For orientation: inhibition means how much of the control response was suppressed. A high value points to a response far below the control.

Structures are written as SMILES.

The target of this test is T1, FGFR2 (Homo sapiens, UniProt P21802).
T1 construct: purchased Thermo Fisher Scientific (Life Technologies) SelectScreen
T1 sequence (P21802 22-821): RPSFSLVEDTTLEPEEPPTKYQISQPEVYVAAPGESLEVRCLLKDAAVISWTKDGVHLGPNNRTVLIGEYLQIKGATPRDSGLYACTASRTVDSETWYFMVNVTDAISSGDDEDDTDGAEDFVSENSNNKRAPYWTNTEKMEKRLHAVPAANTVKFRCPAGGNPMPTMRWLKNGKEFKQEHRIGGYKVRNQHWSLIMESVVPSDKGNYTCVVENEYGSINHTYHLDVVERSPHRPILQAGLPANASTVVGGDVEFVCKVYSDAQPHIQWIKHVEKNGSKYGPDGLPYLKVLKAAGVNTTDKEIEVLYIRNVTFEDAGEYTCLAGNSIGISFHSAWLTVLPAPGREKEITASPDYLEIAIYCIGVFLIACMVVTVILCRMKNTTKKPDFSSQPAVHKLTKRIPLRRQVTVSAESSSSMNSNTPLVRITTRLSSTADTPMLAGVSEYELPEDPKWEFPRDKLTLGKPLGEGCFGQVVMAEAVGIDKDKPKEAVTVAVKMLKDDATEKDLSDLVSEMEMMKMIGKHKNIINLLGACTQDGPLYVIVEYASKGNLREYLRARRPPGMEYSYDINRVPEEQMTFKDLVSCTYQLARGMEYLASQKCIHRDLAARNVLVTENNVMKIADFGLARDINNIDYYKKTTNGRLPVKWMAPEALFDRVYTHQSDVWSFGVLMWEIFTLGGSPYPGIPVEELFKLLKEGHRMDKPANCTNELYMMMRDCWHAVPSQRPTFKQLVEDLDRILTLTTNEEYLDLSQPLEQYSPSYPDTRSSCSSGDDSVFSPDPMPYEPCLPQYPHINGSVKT
Put plainly: SelectScreen Z'LYTE. In kind it is biochemical. As for the experimental part:
The in vitro kinase selectivity of NU5455 was determined using the SelectScreen Broad Assay Panel (Thermo Fisher Scientific) involving activity and binding assays (Supplemental Table 1). […] Class IA PI3Ks were measured using the p85α subunit.
Kinase [ATP] % Assay Kinase [ATP] % Assay Kinase [ATP] % Assay Kinase [ATP] % Assay
DNA-PK Km app 98.3 Z LATS2 n/a 4.7 L KIT D820E n/a 1.3 L GSK3B (GSK3 beta) Km app -2.5 Z
PIK3C3 (hVPS34) Km app 85.9 A PRKCZ (PKC zeta) Km app 4.7 Z GRK1 n/a 1.3 L BMPR2 n/a -2.5 L
PIK3C2B (PI3K-C2 beta) 10 28.9 A FGFR1 Km app 4.7 Z BRSK2 n/a 1.2 L CDC42 BPB (MRCKB) Km app -2.5 Z
SNF1LK2 Km app 26.6 Z MINK1 Km app 4.6 Z NUAK1 (ARK5) Km app 1.2 A AMPK (A2/B2/G2) n/a -2.6 L
HCK Km app 18.0 Z CSF1R (FMS) Km app 4.3 Z CDK9/cyclin K n/a 1.0 L PRKG1 Km app -2.7 Z
NEK2 Km app 17.8 Z CSNK1G3 (CK1 gamma 3) Km app 4.2 Z NUAK2 n/a 1.0 L KIT T670E n/a -2.8 L
ALK Km app 17.3 Z STK32C (YANK3) n/a 4.2 L CDK2/cyclin O n/a 0.9 L ERBB4 (HER4) Km app -2.8 Z
FGFR3 K650M n/a 16.5 L STK22D (TSSK1) Km app 4.2 Z CAMKK2 (CaMKK beta) n/a 0.9 L PLK4 n/a -2.8 L
SIK3 n/a 16.1 L TAOK3 (JIK) n/a 4.2 L FGFR3 Km app 0.9 Z GRK7 Km app -3.0 Z
LYN A Km app 15.2 Z RPS6KA4 (MSK2) Km app 4.2 Z ULK2 n/a 0.9 L MAPKAPK2 Km app -3.1 Z
BMPR1B (ALK6) n/a 14.5 L PTK2B (FAK2) Km app 4.2 Z KIT D816V n/a 0.9 L FGFR4 Km app -3.1 Z
INSRR (IRR) Km app 14.1 Z CLK2 Km app 4.1 Z CAMK1 (CaMK1) 10 0.8 A CASK n/a -3.1 L
PLK2 Km app 14.1 Z STK24 (MST3) Km app 4.1 Z PTK6 (Brk) Km app 0.7 Z GRK5 Km app -3.2 Z
PRKACA (PKA) Km app 14.0 Z CAMK1D (CaMKI delta) Km app 4.1 Z CAMK2B (CaMKII beta) Km app 0.7 Z EGFR (ErbB1) T790M Km app -3.3 Z
EIF2AK2 (PKR) n/a 13.3 L INSR Km app 4.1 Z ACVR1 (ALK2) n/a 0.7 L PAK4 Km app -3.3 Z
PRKX Km app 12.5 Z IRAK1 Km app 4.0 A ABL1 H396P n/a 0.6 L DAPK3 (ZIPK) Km app -3.4 Z
FGR Km app 12.1 Z SRC N1 Km app 3.9 Z MERTK (cMER) A708S n/a 0.6 L RET M918T n/a -3.5 L
CLK1 Km app 11.7 Z SRPK2 Km app 3.9 Z MAPKAPK5 (PRAK) Km app 0.6 Z PRKCQ (PKC theta) Km app -3.7 Z
MARK3 Km app 11.4 Z RPS6KA6 (RSK4) Km app 3.8 Z AKT1 (PKB alpha) Km app 0.5 Z CAMKK1 (CAMKKA) n/a -3.8 L
PDGFRB (PDGFR beta) Km app 11.0 Z GRK6 Km app 3.7 Z NTRK3 (TRKC) Km app 0.4 Z FLT3 D835Y Km app -3.9 Z
PRKCN (PKD3) Km app 10.7 Z PKN1 (PRK1) Km app 3.6 Z ZAP70 Km app 0.3 Z ROCK2 Km app -4.1 Z
STK16 (PKL12) n/a 10.5 L MAP3K8 (COT) 100 3.5 Z CSNK1A1 (CK1 alpha 1) Km app 0.3 Z CHUK (IKK alpha) Km app -4.2 A
FES (FPS) Km app 10.4 Z FLT4 (VEGFR3) Km app 3.5 Z MYLK (MLCK) n/a 0.2 L AXL Km app -4.2 Z
ABL1 Km app 10.4 Z GRK4 Km app 3.5 Z MKNK2 (MNK2) n/a 0.2 L PIM2 Km app -4.3 Z
MUSK Km app 10.3 Z FRK (PTK5) Km app 3.4 Z AMPK (A1/B1/G3) n/a 0.2 L PAK1 Km app -4.4 Z
MAPK1 (ERK2) Km app 10.1 Z FYN A n/a 3.3 L MAP3K2 (MEKK2) n/a 0.1 L BMPR1A (ALK3) n/a -4.4 L
BRAF 100 9.9 Z CDK1/cyclin A2 n/a 3.3 L CDK8/cyclin C n/a 0.1 L STK4 (MST1) Km app -4.4 Z
IGF1R Km app 9.7 Z KIT V559D T670I n/a 3.1 L MARK2 Km app 0.1 Z PRKCH (PKC eta) Km app -4.6 Z
MAPK14 (p38 alpha) Km app 9.7 Z SPHK2 10 3.1 A ICK n/a 0.0 L SGKL (SGK3) Km app -4.6 Z
LCK Km app 9.6 Z FGFR3 G697C n/a 3.1 L FGFR2 Km app 0.0 Z PI4KB (PI4K beta) Km app -4.7 A
MAPK11 (p38 beta) Km app 9.5 Z RIPK2 n/a 3.1 L AKT2 (PKB beta) Km app 0.0 Z PRKCE (PKC epsilon) Km app -4.9 Z
SRC Km app 9.5 Z PAK6 Km app 3.0 Z EPHB2 Km app -0.1 Z PHKG1 Km app -5.0 Z
CHEK1 (CHK1) Km app 9.3 Z LYN B Km app 3.0 Z TGFBR2 n/a -0.1 L PDGFRA D842V Km app -5.0 Z
CAMK2D (CaMKII delta) Km app 9.3 Z DAPK2 n/a 2.9 L TEK (Tie2) Km app -0.1 Z PRKG2 (PKG2) Km app -5.1 Z
PLK1 Km app 9.2 Z EPHA4 Km app 2.9 Z AURKA (Aurora A) Km app -0.1 Z TYRO3 (RSE) Km app -5.1 Z
RET Y791F Km app 9.2 Z PIK3CG (p110 gamma) Km app 2.9 A KIT D816H n/a -0.2 L TAOK2 (TAO1) Km app -5.1 Z
FLT3 Km app 9.1 Z HIPK1 (Myak) Km app 2.8 Z KIT N822K n/a -0.2 L EPHB4 Km app -5.3 Z
MAPK10 (JNK3) 100 9.0 Z ADRBK2 (GRK3) Km app 2.8 Z PRKACG (PRKAC gamma) n/a -0.2 L AURKC (Aurora C) Km app -5.4 Z
CSNK2A2 (CK2 alpha 2) Km app 8.7 Z STK17B (DRAK2) n/a 2.7 L TEK (TIE2) Y1108F n/a -0.3 L JAK1 Km app -5.7 Z […]

As for `CN(C(=O)CN1CCOCC1)c1ccc2sc3c(-c4cccc5c(=O)cc(N6CC7CCC(C6)O7)oc45)cccc3c2c1` [NU5455], testing at 1 µM gave an inhibition of 0%.
